Test results: publication PMC11714165, “Bone‐Targeted Fluoropeptide Nanoparticle Inhibits NF‐κB Signaling to Treat Osteosarcoma and Tumor‐Induced Bone Destruction” (Advanced Science, 2024)
Residues, ends and D or L forms follow the SMILES beside them. *: point of attachment. X1 = O=C(OCCC(F)(F)C(F)(F)C(F)(F)C(F)(F)C(F)(F)C(F)(F)F)c1ccc(C=NN*)cc1; FITC = O=C1OC2(c3ccc(O)cc3Oc3cc(O)ccc32)c2ccc(NC(=S)*)cc21; NHNH2 = NN*

Columns and labels:
[1] = system: mouse red blood cell; assay: Hemolysis of red blood cell suspension; format: cell-based; conditions: 2% mouse red blood cell suspension, different concentrations, 37 °C, 2 h, 1% Triton X‐100 positive control, n = 3
Description: Figure 3 Bioactivity of fluorous NBD nanoparticles. A) Schematic illustration of the NBD peptide inhibiting the NF‐κB pathway. B) WB analysis of p65, IκB, and phosphorylated p65 and IκB, respectively in BMM cells treated with RANKL for 2 h and then further incubated with different peptides (25 µM) for 24 h. C) Representative images of TRAP staining in BMM cells treated with PBS, NBD, NBD‐T, and NBD‐F respectively for osteoclast differentiation. The concentration of peptides was 25 µM. D) Quantification of the number of TRAP‐positive multinucleated osteoclasts (≥ 3 nuclei) based on the images in C). n = 5. Cell viability E) and LDH release F) of 143B cells exposed for 24 h to varying doses of NBD, NBD‐T, and NBD‐F, respectively. n = 3. G) Apoptosis analysis of 143B cells stained with FITC‐annexin V and propidium iodide (PI) for 24 h following treatment with NBD, NBD‐T, and NBD‐F, respectively. H) Images of 2% mouse red blood cell suspension incubated with different concentrations of NBD‐F or NBD‐T at 37 °C for 2 h. Triton X‐100 at 1% (Tx‐100) was used as a positive control. PBS was used as a negative control. […] Relative hemolysis was tested as [(As‐An)/(Ap‐An)] × 100%, where As, Ap, and An are the UV absorbances of the sample, positive control, and negative control, respectively (n = 3). *p < 0.05, **p < 0.01, ***p < 0.001, and ****p < 0.0001. […]

[2] = system: 143B cells; assay: LDH release assay; format: cell-based, human; conditions: varying doses, 24 h, n = 3
Description: For the LDH assay, different concentrations of peptides were added to 143B cells as described above. The LDH released from the cells was measured by the manufacturer's protocol (Beyotime) after 24 h of incubation. Briefly, a new plate was used to transfer the solution of each well and treat it with lysis buffer at 37 °C for another 1 h. Each well was then incubated with the LDH working solution for 30 min. LDH activity was measured at 490 nm. Negative control cells were non‐treated, while positive control cells were treated with lysis buffer for 1 h directly. All samples were tested in triplicate.

[3] = system: 143B cells; assay: Intracellular peptide delivery, confocal microscopy and flow cytometry; format: cell-based, human
Description: 10 µM of ^FINBD, ^FINBD‐F, or ^FINBD‐T was added to confocal dishes (diameter: 35 mm) when the 143B cells reached 90% confluence. After a 6 h incubation, the cells were rinsed with trypan blue and PBS, followed by imaging using a LSCM.
For flow cytometry analysis, the peptide ^FINBD, ^FINBD‐F, or ^FINBD‐T was added to 143B cells, following the aforementioned protocols. Subsequently, cells were digested using 0.25% trypsin, resuspended in PBS, and subjected to quantitative analysis of delivery efficiency using flow cytometry (CytoFLEX, BECKMAN, USA).
A control group consisted of ^FINBD‐F treated 143B cells in the absence of inhibitors (37 °C). Finally, LSCM was employed to observe internalized ^FINBD‐F in the treated cells.

## CC(C)C[C@H](NC(=O)[C@H](C)NC(=O)[C@@H](N)[C@@H](C)O)C(=O)N[C@@H](CC(=O)O)C(=O)N[C@@H](Cc1c[nH]c2ccccc12)C(=O)N[C@@H](CO)C(=O)N[C@@H](Cc1c[nH]c2ccccc12)C(=O)N[C@@H](CC(C)C)C(=O)N[C@@H](CCC(N)=O)C(=O)N[C@H](C(=O)N[C@@H](CCC(=O)O)C(=O)NN=Cc1ccc(C(=O)OCCC(F)(F)C(F)(F)C(F)(F)C(F)(F)C(F)(F)C(F)(F)F)cc1)[C@@H](C)O [NBD-F] (H-TALDWSWLQTE-X1)
[1]
  Relative hemolysis: relatively low hemolytic rate
[2]
  LDH release: concentration‐dependent

## {FITC}-TALDWSWLQTE-NHNH2 [^FINBD-F, FITC‐labeled NBD peptide after fluorous tag modification]
[3]; 10 µM NBD, 6 h, confocal microscopy and flow cytometry, n = 3, compared with ^FINBD and ^FINBD‐T
  Efficiency of intracellular delivery (fluorescence intensity): noticeably improved the efficiency of intracellular delivery
[3]; 1 h pretreatment with EIPA 100 µM, MβCD 10 mM, GEN 700 µM, CPZ 20 µM or 4 °C, then 6 h peptide
  Internalization mechanism: mediated through multiple endocytosis pathways
[3]; confocal, fluorescence dispersed throughout the cells after an hour of incubation
  Cellular uptake and endosomal escape: rapid and efficient
